Experimental data as given in ChEMBL document CHEMBL1201862, “PubChem BioAssay data set” (2004).
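Values below derive from 48-hour exposures of cells grown in 96-well plates, with endpoints linearly interpolated between the two concentrations bracketing the appropriate inhibition level. At the GI50, growth is halved.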 The source made the active and inactive calls. Rule as the data show it: active = GI50 up to about 1.1 µM and inactive = higher.

What was measured:
Assay in all cases: NCI-60 cell line screen, 48 h
SNB-19 = tested on: SNB-19
ACHN = tested on: ACHN
HCT-15 = tested on: HCT-15
HCT-116 = tested on: HCT-116
HT-29 = tested on: HT-29
SF-268 = tested on: SF-268
HOP-92 = tested on: HOP-92
SN12C = tested on: SN12C
Malme-3M = tested on: Malme-3M
OVCAR-8 = tested on: OVCAR-8
CCRF-CEM = tested on: CCRF-CEM
MCF7 = tested on: MCF7
MDA-N = tested on: MDA-N
NCI-H23 = tested on: NCI-H23
NCI-H460 = tested on: NCI-H460
UO-31 = tested on: UO-31
DU-145 = tested on: DU-145
KM12 = tested on: KM12
M14 = tested on: M14
NCI-H226 = tested on: NCI-H226

Compound	GI50 (SNB-19)	GI50 (ACHN)	GI50 (HCT-15) [µM]	GI50 (HCT-116)	GI50 (HT-29)	GI50 (SF-268)	GI50 (HOP-92)	GI50 (SN12C)	GI50 (Malme-3M)	GI50 (OVCAR-8)	GI50 (CCRF-CEM)	GI50 (MCF7)	GI50 (MDA-N)	GI50 (NCI-H23)	GI50 (NCI-H460)	GI50 (UO-31)	GI50 (DU-145)	GI50 (KM12)	GI50 (M14)	GI50 (NCI-H226)
C/C=C1\CNC1C(=O)O (stereo not given)	> 100 µM (inactive)	> 100 µM (inactive)	> 100	> 100 µM (inactive)	> 100 µM (inactive)	> 100 µM (inactive)	> 100 µM (inactive)	> 100 µM (inactive)	> 100 µM (inactive)	> 100 µM (inactive)	> 100 µM (inactive)	> 100 µM (inactive)	> 100 µM (inactive)	> 100 µM (inactive)	> 100 µM (inactive)	> 100 µM (inactive)				
O=C1CC(C(CC(=O)c2ccccc2)c2ccccc2)C(=O)c2ccccc2N1 (stereo not given)	51.5 µM (inactive)	45.3 µM (inactive)	33.8	49.3 µM (inactive)	32.3 µM (inactive)	53.6 µM (inactive)		35.7 µM (inactive)	28.4 µM (inactive)	27.8 µM (inactive)	25.9 µM (inactive)	25.9 µM (inactive)	49.3 µM (inactive)	> 100 µM (inactive)	33.3 µM (inactive)	14.2 µM (inactive)	48.6 µM (inactive)	49.7 µM (inactive)	33.7 µM (inactive)	24.4 µM (inactive)
O=C1CC(c2ccc[nH]2)=NN1c1ccccc1	> 100 µM (inactive)	> 100 µM (inactive)	> 100	> 100 µM (inactive)	> 100 µM (inactive)	> 100 µM (inactive)	> 100 µM (inactive)	> 100 µM (inactive)	> 100 µM (inactive)	> 100 µM (inactive)	88.5 µM (inactive)		> 100 µM (inactive)	> 100 µM (inactive)	> 100 µM (inactive)	> 100 µM (inactive)	> 100 µM (inactive)	> 100 µM (inactive)	> 100 µM (inactive)	> 100 µM (inactive)
Cc1ccc(C(=O)Nc2ccc(S(=O)(=O)O)c3cc(S(=O)(=O)O)cc(S(=O)(=O)O)c23)cc1N	> 100 µM (inactive)	> 100 µM (inactive)	> 100	> 100 µM (inactive)	> 100 µM (inactive)	> 100 µM (inactive)		> 100 µM (inactive)	> 100 µM (inactive)	> 100 µM (inactive)	> 100 µM (inactive)	> 100 µM (inactive)	> 100 µM (inactive)	> 100 µM (inactive)	> 100 µM (inactive)	> 100 µM (inactive)	> 100 µM (inactive)	> 100 µM (inactive)	> 100 µM (inactive)	> 100 µM (inactive)
O=C1Nc2c(Cl)cc(Cl)cc2/C1=N/N=C/c1ccco1	80.7 µM (inactive)	34.1 µM (inactive)	28.8	33 µM (inactive)	28.8 µM (inactive)		27.4 µM (inactive)	26.6 µM (inactive)	56.6 µM (inactive)	22.8 µM (inactive)	29 µM (inactive)	20.2 µM (inactive)	18.9 µM (inactive)	25 µM (inactive)	28.2 µM (inactive)	20.5 µM (inactive)		25.4 µM (inactive)	34.7 µM (inactive)	23 µM (inactive)
COc1ccc(C2=NN(c3ccccc3)C(c3cc4cc(Br)ccc4nc3Cl)C2)cc1 (stereo not given)	> 25 µM (inactive)		11.6	17.5 µM (inactive)	> 25 µM (inactive)	> 25 µM (inactive)	> 25 µM (inactive)	> 25 µM (inactive)	> 25 µM (inactive)	> 25 µM (inactive)	24.2 µM (inactive)		20.8 µM (inactive)	> 25 µM (inactive)		> 25 µM (inactive)	> 25 µM (inactive)	11.4 µM (inactive)	> 25 µM (inactive)	> 25 µM (inactive)
CC(C)(C)c1ccc(C(O)(c2ccc(C(C)(C)C)cc2)c2ccc(C(C)(C)C)cc2)cc1	> 100 µM (inactive)	> 100 µM (inactive)	> 100	> 100 µM (inactive)	> 100 µM (inactive)	> 100 µM (inactive)		> 100 µM (inactive)	6.92 µM (inactive)	> 100 µM (inactive)	> 100 µM (inactive)	> 100 µM (inactive)	> 100 µM (inactive)	> 100 µM (inactive)	> 100 µM (inactive)	> 100 µM (inactive)	> 100 µM (inactive)	> 100 µM (inactive)	> 100 µM (inactive)	> 100 µM (inactive)
CSC[C@H](NC(=O)COc1cccc2cnccc12)C(=O)NC(Cc1ccccc1)C(O)C(=O)N1CSC[C@H]1C(=O)NC(C)(C)C (stereo not given in full)	> 100 µM (inactive)	24.4 µM (inactive)	> 100	23 µM (inactive)	33.7 µM (inactive)	16.9 µM (inactive)		84.7 µM (inactive)	> 100 µM (inactive)	78.3 µM (inactive)	26.5 µM (inactive)	68.2 µM (inactive)	38.4 µM (inactive)	82.4 µM (inactive)	38.9 µM (inactive)	86.3 µM (inactive)	42.8 µM (inactive)	53.2 µM (inactive)	78.2 µM (inactive)	> 100 µM (inactive)
Fc1cc(C2=Nn3c(CNc4ccc(Cl)cc4)nnc3S/C2=C\c2ccc(-c3ccc(Cl)cc3)o2)c(Cl)cc1Cl	44 µM (inactive)	34.9 µM (inactive)	> 100	63.2 µM (inactive)	32.8 µM (inactive)	53.2 µM (inactive)		33.3 µM (inactive)	17.3 µM (inactive)	51.1 µM (inactive)	67.1 µM (inactive)	38.8 µM (inactive)	> 100 µM (inactive)	81.8 µM (inactive)	65.3 µM (inactive)	11.8 µM (inactive)	65 µM (inactive)	> 100 µM (inactive)	53.3 µM (inactive)	26.5 µM (inactive)
Cn1c2n/c(=N\c3ccc(Cl)cc3)[n+]3ccc4ccccc4c3c-2c([O-])n1-c1ccccc1	> 100 µM (inactive)	> 100 µM (inactive)	> 100	> 100 µM (inactive)	> 100 µM (inactive)	> 100 µM (inactive)		> 100 µM (inactive)	> 100 µM (inactive)	> 100 µM (inactive)		> 100 µM (inactive)	> 100 µM (inactive)	> 100 µM (inactive)	> 100 µM (inactive)	> 100 µM (inactive)	> 100 µM (inactive)	42.9 µM (inactive)		> 100 µM (inactive)
Cc1c(C#N)c2nc3ccccc3n2c(=O)/c1=C/Nc1ccc(Cl)cc1	11 µM (inactive)	10.6 µM (inactive)	8.65	16.6 µM (inactive)	> 100 µM (inactive)	22.9 µM (inactive)	20.1 µM (inactive)	93.3 µM (inactive)	> 100 µM (inactive)	51.3 µM (inactive)		55.2 µM (inactive)	> 100 µM (inactive)	18.1 µM (inactive)	29.2 µM (inactive)	15.7 µM (inactive)		6.61 µM (inactive)	3.83 µM (inactive)	42.3 µM (inactive)
O=C(O)c1cc(/C=C/c2cc(O)ccc2O)ccc1O	> 10 µM (inactive)	> 10 µM (inactive)	> 10		> 10 µM (inactive)	> 10 µM (inactive)		> 10 µM (inactive)	> 10 µM (inactive)	> 10 µM (inactive)	> 10 µM (inactive)	3.91 µM (inactive)	3.43 µM (inactive)	> 10 µM (inactive)	> 10 µM (inactive)	> 10 µM (inactive)	> 10 µM (inactive)		> 10 µM (inactive)	> 10 µM (inactive)
Cn1c2ccccc2n2c(=O)c3cccnc3c(C#N)c12		31.1 µM (inactive)	37.8	94.2 µM (inactive)	63 µM (inactive)	> 100 µM (inactive)	> 100 µM (inactive)	25.5 µM (inactive)	> 100 µM (inactive)	40.3 µM (inactive)			> 100 µM (inactive)	33.3 µM (inactive)	18.7 µM (inactive)		> 100 µM (inactive)	> 100 µM (inactive)		4.42 µM (inactive)
COc1cccc2c1C(=O)c1c(O)c3c(c(O)c1C2=O)C[C@@](O)(C(C)=O)C[C@@H]3OC1CC(O)C(O)C(C)O1 (stereo not given in full)	1.09 µM (active)	0.543 µM (active)	1.43	0.288 µM (active)	1.41 µM (inactive)	1.08 µM (active)	2.1 µM (inactive)	0.675 µM (active)	0.000916 µM (active)	1.3 µM (inactive)	0.0902 µM (active)		8.71 µM (inactive)	0.942 µM (active)	0.124 µM (active)	1.66 µM (inactive)	1.62 µM (inactive)	1.55 µM (inactive)	4.8 µM (inactive)	0.289 µM (active)
COc1ccc(-c2nc(-c3cnccn3)n(C/C=C/c3ccccc3)n2)cc1	37.2 µM (inactive)		> 100	92.3 µM (inactive)	> 100 µM (inactive)		11.5 µM (inactive)	> 100 µM (inactive)		47.9 µM (inactive)	> 100 µM (inactive)	> 100 µM (inactive)	> 100 µM (inactive)	> 100 µM (inactive)	> 100 µM (inactive)	49.2 µM (inactive)	> 100 µM (inactive)	> 100 µM (inactive)	> 100 µM (inactive)	
CN(C)C(=C1c2cc([N+](=O)[O-])ccc2-c2ccc([N+](=O)[O-])cc21)N(C)C	> 100 µM (inactive)	> 100 µM (inactive)	> 100	> 100 µM (inactive)	> 100 µM (inactive)	> 100 µM (inactive)		> 100 µM (inactive)	> 100 µM (inactive)	> 100 µM (inactive)	> 100 µM (inactive)	> 100 µM (inactive)	> 100 µM (inactive)	> 100 µM (inactive)		56.2 µM (inactive)	> 100 µM (inactive)	> 100 µM (inactive)	> 100 µM (inactive)	> 100 µM (inactive)
